Measurements published in ChEMBL document CHEMBL1201862, “PubChem BioAssay data set” (2004).
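Five compound concentrations were applied to cells in 96-well plates for 48 hours; endpoints were derived by simple linear interpolation of the resulting dose-response curve. GI50 is the concentration that inhibits growth by half.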 Calls of active or inactive are those of the source. No stated cut-off is given here; in the data, active = GI50 up to about 1.1 µM and inactive = higher. Where a SMILES comes first, the peptide text is derived from it. The star is where a group is joined. Cbz = O=C(OCc1ccccc1)*; Boc = CC(C)(C)OC(=O)*; OSu = O=C1CCC(=O)N1O*; Bn = c1ccc(C*)cc1

How the values were obtained:
Test in all cases: NCI tumour cell line growth inhibition, 48 h
A549 = test system: A549
CAKI-1 = test system: CAKI-1
CCRF-CEM = test system: CCRF-CEM
DU-145 = test system: DU-145
HL-60 = test system: HL-60
HOP-92 = test system: HOP-92
K562 = test system: K562
MDA-MB-435 = test system: MDA-MB-435
NCI-H23 = test system: NCI-H23
NCI/ADR-RES = test system: NCI/ADR-RES
OVCAR-4 = test system: OVCAR-4
PC-3 = test system: PC-3
RPMI-8226 = test system: RPMI-8226
SF-539 = test system: SF-539
SK-MEL-5 = test system: SK-MEL-5
SN12C = test system: SN12C
SNB-75 = test system: SNB-75
U-251 = test system: U-251
UACC-257 = test system: UACC-257
MDA-N = test system: MDA-N

Measured: GI50

C[N+](C)(C)CC1CCCc2ccccc2C1=O (stereo not drawn)
inactive: A549 4.06 µM | CAKI-1 4.71 µM | CCRF-CEM 2.32 µM | DU-145 > 42.1 µM | HL-60 1.89 µM | HOP-92 13.2 µM | K562 2.49 µM | MDA-MB-435 5.89 µM | NCI-H23 17.9 µM | NCI/ADR-RES 7.06 µM | OVCAR-4 6.92 µM | PC-3 16.8 µM | SF-539 17.4 µM | SK-MEL-5 6.59 µM | SN12C 6.68 µM | SNB-75 19.7 µM | U-251 6.71 µM | UACC-257 13.7 µM
active: RPMI-8226 0.265 µM

CC(NC(=O)OC(C)(C)C)C(=O)NC(Cc1ccccc1)C(=O)NCC(=O)Oc1c(Cl)c(Cl)c(Cl)c(Cl)c1Cl (stereo not drawn)
inactive: A549 19.5 µM | HL-60 24.7 µM | HOP-92 12.5 µM | K562 30.6 µM | MDA-N 28.2 µM | NCI-H23 18.7 µM | PC-3 20.3 µM | RPMI-8226 23.2 µM | SK-MEL-5 13.6 µM | SN12C 14.5 µM | SNB-75 34.6 µM | U-251 19.7 µM | UACC-257 20 µM

CCCN(CCC)C(=O)c1nc(N)nc(-c2ccc(OC)cc2)c1-c1ccc(OC)cc1
inactive: A549 > 100 µM | CAKI-1 > 100 µM | CCRF-CEM > 100 µM | HL-60 73.8 µM | HOP-92 82.6 µM | K562 84.1 µM | NCI-H23 > 100 µM | OVCAR-4 47.9 µM | RPMI-8226 29 µM | SF-539 > 100 µM | SK-MEL-5 > 100 µM | SN12C > 100 µM | SNB-75 37.5 µM | U-251 > 100 µM | UACC-257 > 100 µM

Cn1nc2ccc(Nc3cc(=O)[nH]c4ccc5nn(C)nc5c34)cc2n1
inactive: A549 > 100 µM | CAKI-1 > 100 µM | CCRF-CEM > 100 µM | DU-145 > 100 µM | HOP-92 > 100 µM | K562 50 µM | MDA-MB-435 > 100 µM | NCI-H23 > 100 µM | NCI/ADR-RES > 100 µM | OVCAR-4 > 100 µM | PC-3 > 100 µM | SF-539 > 100 µM | SK-MEL-5 > 100 µM | SN12C > 100 µM | SNB-75 > 100 µM | U-251 > 100 µM | UACC-257 > 100 µM

CCOC(=O)c1sc2c(C(=O)OCC)n3ccccc3c2c1N
inactive: A549 > 100 µM | CAKI-1 > 100 µM | CCRF-CEM > 100 µM | HL-60 > 100 µM | HOP-92 13.4 µM | K562 > 100 µM | NCI-H23 43.6 µM | OVCAR-4 > 100 µM | RPMI-8226 > 100 µM | SF-539 64.1 µM | SK-MEL-5 > 100 µM | SN12C 96.8 µM | SNB-75 31.7 µM | U-251 31.8 µM | UACC-257 > 100 µM

COc1cc(Br)cc2cc(-c3cn4c(n3)sc3ccccc34)c(=O)oc12
inactive: A549 36.5 µM | CAKI-1 22.9 µM | CCRF-CEM 20.4 µM | DU-145 17.7 µM | HL-60 15.6 µM | HOP-92 14.7 µM | K562 13.6 µM | MDA-MB-435 24.4 µM | NCI-H23 21.2 µM | NCI/ADR-RES 30.7 µM | OVCAR-4 26.1 µM | PC-3 16.3 µM | RPMI-8226 21.6 µM | SF-539 30.9 µM | SK-MEL-5 28.4 µM | SN12C 24.7 µM | U-251 25.2 µM | UACC-257 38.5 µM

COC(=O)C1=C(C)C(=O)C2(CCCCCC2C(=O)OC)C1 (stereo not drawn)
inactive: A549 > 100 µM | CAKI-1 > 100 µM | CCRF-CEM > 100 µM | HL-60 > 100 µM | HOP-92 > 100 µM | K562 > 100 µM | NCI-H23 > 100 µM | OVCAR-4 > 100 µM | RPMI-8226 > 100 µM | SF-539 63.7 µM | SK-MEL-5 > 100 µM | SN12C > 100 µM | SNB-75 > 100 µM | U-251 > 100 µM | UACC-257 > 100 µM

COc1cc(O)c(C(=O)/C=C/c2ccc(OC)c(OCc3ccccc3)c2)c(OC)c1
inactive: A549 64.6 µM | CAKI-1 > 100 µM | CCRF-CEM 3.92 µM | HL-60 8.67 µM | HOP-92 > 100 µM | K562 5.93 µM | NCI-H23 6.52 µM | OVCAR-4 > 100 µM | RPMI-8226 5.86 µM | SF-539 > 100 µM | SK-MEL-5 > 100 µM | SN12C > 100 µM | SNB-75 22.1 µM | U-251 > 100 µM | UACC-257 > 100 µM

O=S(=O)(O)c1cc(/N=N/c2c(O)ccc3ccccc23)c2c(S(=O)(=O)O)cccc2c1
inactive: A549 > 100 µM | CAKI-1 > 100 µM | CCRF-CEM > 100 µM | HL-60 > 100 µM | HOP-92 > 100 µM | K562 > 100 µM | MDA-MB-435 > 100 µM | NCI-H23 > 100 µM | NCI/ADR-RES > 100 µM | OVCAR-4 > 100 µM | PC-3 > 100 µM | RPMI-8226 > 100 µM | SF-539 > 100 µM | SK-MEL-5 > 100 µM | U-251 > 100 µM | UACC-257 > 100 µM
active: SNB-75 < 0.01 µM

CC(C)(C)OC(=O)NC(Cc1ccc(OCc2ccccc2)cc1)C(=O)NC(CCCCNC(=O)OCc1ccccc1)C(=O)ON1C(=O)CCC1=O (stereo not drawn) (Boc-Tyr(Bn)-Lys(Cbz)-OSu; configuration not given here)
inactive: A549 34.1 µM | HL-60 22 µM | HOP-92 > 10 µM | K562 27 µM | MDA-N 15.7 µM | NCI-H23 17.8 µM | PC-3 22.1 µM | RPMI-8226 20 µM | SK-MEL-5 22.4 µM | SN12C 16.7 µM | SNB-75 21.8 µM | U-251 17 µM | UACC-257 34.3 µM

O[C@H]1[C@H](O)[C@@H](O)[C@H](O)[C@@H](O)[C@H]1O [INOSITOL]
active: SNB-75 0.1 µM
inactive: A549 > 1000 µM | CCRF-CEM 1.7 µM | DU-145 > 1000 µM | HOP-92 > 1000 µM | K562 > 1000 µM | MDA-MB-435 > 1000 µM | NCI-H23 > 1000 µM | NCI/ADR-RES > 1000 µM | OVCAR-4 > 1000 µM | PC-3 > 1000 µM | RPMI-8226 > 1000 µM | SF-539 > 1000 µM | SK-MEL-5 > 1000 µM | SN12C > 1000 µM | U-251 > 1000 µM | UACC-257 > 1000 µM

O=C(/C=C/c1ccc(Oc2cc(C(=O)/C=C/c3ccc(O)cc3)c(O)cc2O)cc1)c1ccc(O)cc1O [RHUSCHALCONE II]
inactive: A549 15.5 µM | CAKI-1 4.14 µM | CCRF-CEM 2.51 µM | DU-145 3.38 µM | HL-60 4.14 µM | HOP-92 16.5 µM | K562 3.47 µM | MDA-MB-435 4.15 µM | NCI-H23 6.19 µM | NCI/ADR-RES 3.85 µM | OVCAR-4 4.98 µM | PC-3 5.27 µM | RPMI-8226 2.86 µM | SF-539 2.43 µM | SK-MEL-5 4.4 µM | SN12C 4.41 µM | SNB-75 4.63 µM | U-251 3.89 µM | UACC-257 12.7 µM
